Assay [1] addresses T1, LasR (Pseudomonas aeruginosa, UniProt P25084). It counts as cell-based, P. aeruginosa. The settings on record: for Fold change of IC50: IC50 in PAO-JP2 vs PAO-JG21.
The target in assay [2] is T1, LasR. The settings on record: in P. aeruginosa, related reporter constructs; cited from earlier work.
In assay [3] the target is T1, LasR. The settings on record: in E. coli, related reporter constructs; cited from earlier work.
Assay [4] concerns wild-type P. aeruginosa. The settings on record: cited from earlier work.
Assay [5] has as its target T1, LasR. The assay can be described thus: LasR competitive antagonism reporter assay in pump-mutant PAO-JG21. It counts as cell-based, P. aeruginosa. The settings on record: PAO-JG21, 25 µg/mL PAβN.

“And” between values parts separate entries of the source, which are not always exact repeats. Equal values may be shown once. Read-outs that look alike come from different tables or passages of the source.

T1 sequence (P25084 whole entry): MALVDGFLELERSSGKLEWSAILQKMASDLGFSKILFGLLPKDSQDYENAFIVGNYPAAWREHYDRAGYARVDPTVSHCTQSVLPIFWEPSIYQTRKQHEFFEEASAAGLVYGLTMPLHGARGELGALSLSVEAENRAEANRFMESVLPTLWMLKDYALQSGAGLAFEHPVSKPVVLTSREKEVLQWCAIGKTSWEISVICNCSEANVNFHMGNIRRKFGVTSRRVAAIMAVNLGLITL

Turning to `CCCCCCCCCC(=O)CC(=O)Nc1ccccc1` [3-oxo-C12-aniline], the “Fold change of IC50” value in assay [1] turned out to be 6.5. In addition, the “inhibition of LasR activity” value in assay [2] is on record as 30%; in assay [3], 55%. Moreover, in assay [4], the “inhibition of pyocyanin production” value is listed as “strongly inhibiting pyocyanin production”.

Regarding `Cc1cc2nc(N)[nH]c2cc1C` [DMABI, 5,6-dimethyl-2-aminobenzimidazole], the “Fold change of IC50” value in assay [1] amounted to 1.6. In addition, the “effect of pump inhibitor PAβN on LasR inhibitory potency” value is on record as “no effect” in assay [1] (PAO-JP2, 25 µg/mL PAβN) and “no effect” in assay [5]. In addition, in assay [1] (PAO-JP2 harboring plasI-LVAgfp, dose-response (Figure S-14)), the “maximum inhibition of LasR activity” value was ~ 40% and 40%.
